Results as given in ChEMBL document CHEMBL6087402, “Design, synthesis, and in vitro and in vivo biological evaluation of dihydroartemisinin derivatives as potent anti-cancer agents with ferroptosis-inducing and apoptosis-activating properties” (Eur J Med Chem, 2025).
The source made the active and inactive calls. No cut-off for these calls is given here.

Columns and labels:
A549 = assay: Anti-proliferative activity against human A549 cells incubated for 72 hrs by MTT assay; format: functional, cell-based; conditions: A549, 72 h
Bel-7402 = assay: Anti-proliferative activity against human Bel-7402 cells incubated for 72 hrs by MTT assay; format: functional, cell-based; conditions: Bel-7402, 72 h
SW-620 = assay: Anti-proliferative activity against human SW620 cells incubated for 72 hrs by MTT assay; format: functional, cell-based; conditions: SW-620, 72 h
[1] = Selectivity index, ratio of IC50 for human L02 cells to IC50 for human A549 cells; format: toxicity; conditions: L02 cells versus A549 cells, read-out: Ratio IC50
[2] = Selectivity index, ratio of IC50 for human L02 cells to IC50 for human SW620 cells; format: toxicity; conditions: L02 cells versus SW620 cells, read-out: Ratio IC50
[3] = Anti-proliferative activity against human L02 cells incubated for 72 hrs by MTT assay; format: toxicity, cell-based
HCT-116 [4] = assay: Inhibition of cell proliferation in human HCT-116 cells at 3 uM incubated for 12 hrs by EdU assay (reference value: 48.14 %); format: functional
HCT-116 [5] = assay: Anti-proliferative activity against human HCT-116 cells assessed as reduction in total STAT3 level upto 3 uM incubated for 72 hrs by Western blot analysis; format: functional, cell-based
HCT-116 [6] = assay: Induction of ferroptosis in human HCT-116 cells incubated for 72 hrs in presence of DFO by MTT assay; format: functional, cell-based
HCT-116 [7] = assay: Depletion of GSH in human HCT-116 cells assessed as reduction in GSH/GSSG ratio upto 3 uM incubated for 24 hrs; format: functional, cell-based
HCT-116 [8] = assay: Induction of apoptosis in human HCT-116 cells assessed as early apoptotic cells at 0.03 uM incubated for 72 hrs by Annexin V-FITC/PI staining based flow cytometry (reference value: 1.55 %); format: functional
HCT-116 [9] = assay: Induction of apoptosis in human HCT-116 cells assessed as late apoptotic cells at 0.03 uM incubated for 72 hrs by Annexin V-FITC/PI staining based flow cytometry (reference value: 0.98 %); format: functional
HCT-116 [10] = assay: Induction of apoptosis in human HCT-116 cells assessed as necrotic cells at 0.03 uM incubated for 72 hrs by Annexin V-FITC/PI staining based flow cytometry (reference value: 0.33 %); format: functional
HCT-116 [11] = assay: Induction of apoptosis in human HCT-116 cells assessed as necrotic cells at 0.3 uM incubated for 72 hrs by Annexin V-FITC/PI staining based flow cytometry (reference value: 0.33 %); format: functional
HCT-116 [12] = assay: Induction of apoptosis in human HCT-116 cells assessed as early apoptotic cells at 3 uM incubated for 72 hrs by Annexin V-FITC/PI staining based flow cytometry (reference value: 1.55 %); format: functional
HCT-116 [13] = assay: Induction of apoptosis in human HCT-116 cells assessed as late apoptotic cells at 3 uM incubated for 72 hrs by Annexin V-FITC/PI staining based flow cytometry (reference value: 0.98 %); format: functional
HCT-116 [14] = assay: Induction of apoptosis in human HCT-116 cells assessed as increase in cleaved caspase-3 level upto 3 uM incubated for 72 hrs by Western blot analysis; format: functional, cell-based
HCT-116 [15] = assay: Induction of cell cycle arrest in human HCT-116 cells assessed as accumulation at S phase at 0.03 uM incubated for 72 hrs by PI staining based flow cytometry (reference value: 23.49 %); format: functional
HCT-116 [16] = assay: Induction of cell cycle arrest in human HCT-116 cells assessed as accumulation at S phase at 0.3 uM incubated for 72 hrs by PI staining based flow cytometry (reference value: 23.49 %); format: functional
HCT-116 [17] = assay: Induction of cell cycle arrest in human HCT-116 cells assessed as accumulation at G2/M phase at 0.03 uM incubated for 72 hrs by PI staining based flow cytometry (reference value: 15.79 %); format: functional
HCT-116 [18] = assay: Induction of cell cycle arrest in human HCT-116 cells assessed as accumulation at G2/M phase at 3 uM incubated for 72 hrs by PI staining based flow cytometry (reference value: 15.79 %); format: functional
HCT-116 [19] = assay: Induction of cell cycle arrest in human HCT-116 cells at G2/M phase assessed as increase in p53 level incubated for 72 hrs by Western blot analysis; format: functional, cell-based; conditions: dose <= 3.0 µM
[20] = Toxicity in BALB/c mouse assessed as loss of appetite at 100 mg/kg, ip administered continuously for 7 days; format: organism-based; conditions: in vivo, 168 h, time 7 day
[21] = Toxicity in BALB/c mouse assessed as diarrhea at 100 mg/kg, ip administered continuously for 7 days; format: organism-based; conditions: in vivo, 168 h, time 7 day
[22] = Toxicity in BALB/c mouse assessed as difficulty in breathing at 100 mg/kg, ip administered continuously for 7 days; format: organism-based; conditions: in vivo, 168 h, time 7 day
[23] = Toxicity in BALB/c mouse assessed as change fur luster at 100 mg/kg, ip administered continuously for 7 days; format: organism-based; conditions: in vivo, 168 h, time 7 day
[24] = Toxicity in BALB/c mouse assessed as decrease in body weight at 100 mg/kg, ip administered continuously for 7 days; format: organism-based; conditions: in vivo, 168 h, time 7 day
[25] = Toxicity in BALB/c mouse assessed as apparent damage in spleen at 100 mg/kg, ip administered continuously for 7 days by H and E staining based analysis; format: organism-based; conditions: in vivo, 168 h, time 7 day
[26] = Toxicity in mouse xenografted with human HCT-116 cells assessed as body weight change at 50 mg/kg, ip administered once in every 2 days for 21 days; format: organism-based; conditions: in vivo, 504 h, time 21 day
HCT-116 [27] = assay: Antitumor activity against human HCT-116 cells xenografted in mouse assessed as reduction in nuclear-cytoplasmic ratio at 50 mg/kg, ip administered once in every 2 days for 21 days by H and E staining based analysis; format: functional, organism-based; conditions: time 21.0 day
HCT-116 [28] = assay: Antitumor activity against human HCT-116 cells xenografted in mouse assessed as reduction in cellular atypia at 50 mg/kg, ip administered once in every 2 days for 21 days by H and E staining based analysis; format: functional, organism-based; conditions: time 21.0 day

## C[C@@H]1CC[C@H]2[C@@H](C)C(OC(=O)Nc3ccc(Cl)cc3)O[C@@H]3O[C@@]4(C)CC[C@H]1[C@]32OO4 (stereo partly specified)
A549
  IC50: 1 µM
Bel-7402
  IC50: 8.41 µM
SW-620
  IC50: 0.6 µM
[1]
  selectivity ratio: 16.8
[2]
  selectivity ratio: 28
[3]
  IC50 at 72 h: 16.8 µM
HCT-116 [4]
  inhibition at 3 µM: 11.3%
HCT-116 [5]
  Activity: Active
HCT-116 [6]
  Activity: inactive
HCT-116 [7]
  Activity: Active
HCT-116 [8]
  Activity: 4.11%
HCT-116 [9]
  Activity: 2.4%
HCT-116 [10]
  Activity: 0.22%
HCT-116 [11]
  Activity: 0.071%
HCT-116 [12]
  Activity: 17%
HCT-116 [13]
  Activity: 26.2%
HCT-116 [14]
  Activity: Active
HCT-116 [15]
  Activity: 25.54%
HCT-116 [16]
  Activity: 24.55%
HCT-116 [17]
  Activity: 25.25%
HCT-116 [18]
  Activity: 33.23%
HCT-116 [19]
  Activity: Dose-dependent-effect
[20]
  Activity: Non-toxic
[21]
  Activity: Non-toxic
[22]
  Activity: Non-toxic
[23]
  Activity: Non-toxic
[24]
  Activity: Non-toxic
[25]
  Activity: Non-toxic
[26]
  Activity: Non-toxic
HCT-116 [27]
  Activity: Active
HCT-116 [28]
  Activity: Active
